The values below come from patent publication US20210244721A1, “SMALL MOLECULE ENTEROVIRUS INHIBITORS AND USES THEREOF” (priority 2020, published 2021).

One data set deals with EV-D68 US/KY/14-18953 virus. Briefly: CPE assay, EV-D68 US/KY/14-18953 in RD cells. In kind it is cell-based, Enterovirus D68 (EV-D68). The conditions noted are these: EV-D68 US/KY/14-18953, RD cells.
Turning to `CCN(CC)CCNC(=O)c1cc(OC)nc2ccccc12` [Compound 5a, N-[2-(diethylamino)ethyl]-2-methoxyquinoline-4-carboxamide], the “SI = selectivity index (CC50/EC50)” value is recorded as over 4.8.

Regarding `CC(C)Oc1cc(C(=O)NCCN2CCOCC2)c2ccccc2n1` [Compound 8d, N-[2-(morpholin-4-yl)ethyl]-2-(propan-2-yloxy)quinoline-4-carboxamide], the “SI = selectivity index (CC50/EC50)” value is recorded as over 14.3.

Still in this data set, the particulars now being: EV-D68 US/KY/14-18953, RD cells, CPE assay; read-out: EC50.
Consider `NCCNC(=O)c1cc(-c2cccs2)nc2ccccc12` [Compound 6bl, N-(2-aminoethyl)-2-(thiophen-2-yl)quinoline-4-carboxamide], for which the EC50 worked out at 0.4 µM.

For `CN(C)CCNC(=O)c1cc(-c2ccco2)nc2ccccc12` [Compound 6bo, N-[2-(dimethylamino)ethyl]-2-(furan-2-yl)quinoline-4-carboxamide], the EC50 was found to be 1.1 µM.

The same data set, now with this note: Enterovirus D, EVD68, RD, EV-D68 US/KY/14-18953, RD cells, CPE assay.
In turn, `CN(C)CCNC(=O)c1cc(-c2ccco2)nc2ccccc12` [Compound 6bo, N-[2-(dimethylamino)ethyl]-2-(furan-2-yl)quinoline-4-carboxamide] returned an EC50 of under 1 µM.

The same data set, now with this note: Enterovirus D, EVD68, RD, EV-D68 US/KY/14-18953, RD cells, CPE assay; read-out: EC50.
On to `CNCCNC(=O)c1cc(-c2ccccc2)nc2ccccc12` [Compound 6af, N-[2-(methylamino)ethyl]-2-phenylquinoline-4-carboxamide], for which the EC50 came to 0.9 µM.

The next data set concerns RD cells. Briefly: Cytotoxicity, neutral red method, RD cells. The conditions noted are these: RD cells, neutral red method.
For the molecule `CCN(CC)CCNC(=O)c1cc(OC)nc2ccccc12` [Compound 5a, N-[2-(diethylamino)ethyl]-2-methoxyquinoline-4-carboxamide], the CC50 was over 250 µM.

Molecule `CCOc1cc(C(=O)NCCN(CC)CC)c2ccccc2n1` [Compound 5b, N-[2-(diethylamino)ethyl]-2-ethoxyquinoline-4-carboxamide] showed a CC50 of 165 ± 57.6 µM.

On to `CCN(CC)CCNC(=O)c1cc(OCC(F)(F)F)nc2ccccc12` [Compound 5c, N-[2-(diethylamino)ethyl]-2-(2,2,2-trifluoroethoxy)quinoline-4-carboxamide], for which the CC50 was 33.1 ± 1.8 µM.

For `CCCOc1cc(C(=O)NCCN(CC)CC)c2ccccc2n1` [Compound 5d, N-[2-(diethylamino)ethyl]-2-propoxyquinoline-4-carboxamide], the midpoint of cytotoxicity, the CC50, lay at 46.7 ± 14.7 µM.

Regarding `CCC(C)Oc1cc(C(=O)NCCN(CC)CC)c2ccccc2n1` (stereo not shown) [Compound 5f, 2-(butan-2-yloxy)-N-[2-(diethylamino)ethyl]quinoline-4-carboxamide], the CC50 is 15.7 ± 1.1 µM. This CC50 is about 3-fold lower than that of the molecule before.

The molecule `CCN(CC)CCNC(=O)c1cc(OCC2CC2)nc2ccccc12` [Compound 5g, 2-(cyclopropylmethoxy)-N-[2-(diethylamino)ethyl]quinoline-4-carboxamide] yielded a CC50 of 38.5 ± 16.8 µM. This CC50 is about 2.5-fold higher than that of the molecule before.

On to `CCC(CC)Oc1cc(C(=O)NCCN(CC)CC)c2ccccc2n1` [Compound 5h, N-[2-(diethylamino)ethyl]-2-(pentan-3-yloxy)quinoline-4-carboxamide], for which the CC50 came to 9.5 ± 1.1 µM.

`CCN(CC)CCNC(=O)c1cc(OC2CCCC2)nc2ccccc12` [Compound 5i, 2-(cyclopentyloxy)-N-[2-(diethylamino)ethyl]quinoline-4-carboxamide] displayed a CC50 of 11.7 ± 1.2 µM.

The molecule `CCOCCOc1cc(C(=O)NCCN(CC)CC)c2ccccc2n1` [Compound 5j, N-[2-(diethylamino)ethyl]-2-(2-ethoxyethoxy)quinoline-4-carboxamide] gave a CC50 of 144 ± 40.5 µM.

Consider `CCN(CC)CCNC(=O)c1cc(OCc2ccccc2)nc2ccccc12` [Compound 5k, 2-(benzyloxy)-N-[2-(diethylamino)ethyl]quinoline-4-carboxamide], for which the CC50 was determined as 13.5 ± 2.9 µM.

`CCN(CC)CCNC(=O)c1cc(-c2ccn[nH]2)nc2ccccc12` [Compound 6a, N-[2-(diethylamino)ethyl]-2-(1H-pyrazol-5-yl)quinoline-4-carboxamide] registered a CC50 of 132 ± 53.3 µM. Against the preceding molecule, the CC50 is about 9.8-fold higher.

`CCN(CC)CCNC(=O)c1cc(-c2cnn(C)c2)nc2ccccc12` [Compound 6b, N-[2-(diethylamino)ethyl]-2-(1-methyl-1H-pyrazol-4-yl)quinoline-4-carboxamide] showed a half-maximal cytotoxic concentration (CC50) of 251 ± 28.3 µM.

In the case of `CCN(CC)CCNC(=O)c1cc(-c2ccnn2C)nc2ccccc12` [Compound 6c, N-[2-(diethylamino)ethyl]-2-(1-methyl-1H-pyrazol-5-yl)quinoline-4-carboxamide], half-maximal cytotoxicity (CC50) was put at 133 ± 28.7 µM. Against the preceding molecule, the CC50 is about 1.9-fold lower.

`CCN(CC)CCNC(=O)c1cc(-c2c(C)noc2C)nc2ccccc12` [Compound 6h, N-[2-(diethylamino)ethyl]-2-(3,5-dimethyl-1,2-oxazol-4-yl)quinoline-4-carboxamide] showed a half-maximal cytotoxic concentration (CC50) of 129 ± 67.2 µM.

Consider `CCN(CC)CCNC(=O)c1cc(-c2ccncc2)nc2ccccc12` [Compound 6i, N-[2-(diethylamino)ethyl]-2-(pyridin-4-yl)quinoline-4-carboxamide], for which the midpoint of cytotoxicity, the CC50, lay at 174 ± 55.6 µM.

`CCN(CC)CCNC(=O)c1cc(-c2ccccc2OC)nc2ccccc12` [Compound 6k, N-[2-(diethylamino)ethyl]-2-(2-methoxyphenyl)quinoline-4-carboxamide] registered a CC50 of 75.9 ± 6.4 µM.

`CCN(CC)CCNC(=O)c1cc(-c2ccc(COC)cc2)nc2ccccc12` [Compound 6n, N-[2-(diethylamino)ethyl]-2-[4-(methoxymethyl)phenyl]quinoline-4-carboxamide]: the CC50 was determined as 46.6 ± 2.4 µM. Against the preceding molecule, the CC50 is about 1.6-fold lower.

In the case of `CCN(CC)CCNC(=O)c1cc(-c2ccc(CN3CCOCC3)cc2)nc2ccccc12` [Compound 6o, N-[2-(diethylamino)ethyl]-2-{4-[(morpholin-4-yl)methyl]phenyl}quinoline-4-carboxamide], half-maximal cytotoxicity (CC50) was put at 79.2 ± 8 µM. Compared with the last molecule, the CC50 is about 1.7-fold higher.

`CCN(CC)CCNC(=O)c1cc(-c2cnc(N(C)C)nc2)nc2ccccc12` [Compound 6p, N-[2-(diethylamino)ethyl]-2-[2-(dimethylamino)pyrimidin-5-yl]quinoline-4-carboxamide]: the CC50 is 74.2 ± 7 µM.

`CCN(CC)CCNC(=O)c1cc(-c2cnc(OC)nc2)nc2ccccc12` [Compound 6q, N-[2-(diethylamino)ethyl]-2-(2-methoxypyrimidin-5-yl)quinoline-4-carboxamide] yielded a CC50 of 174 ± 20.3 µM.

On to `CCN(CC)CCNC(=O)c1cc(-c2ccc3c(c2)OCCO3)nc2ccccc12` [Compound 6t, N-[2-(diethylamino)ethyl]-2-(2,3-dihydro-1,4-benzodioxin-6-yl)quinoline-4-carboxamide], for which half-maximal cytotoxicity (CC50) was put at 49.9 ± 13.8 µM.

`CCN(CC)CCNC(=O)c1cc(-c2ccc(-c3ccccc3)cc2)nc2ccccc12` [Compound 6u, 2-{[1,1′-biphenyl]-4-yl}-N-[2-(diethylamino)ethyl]quinoline-4-carboxamide] returned a 50% cytotoxic concentration (CC50) of 9.8 ± 0.5 µM. This CC50 lies about 5.1-fold lower than the previous one.

`CC(C)Oc1cc(C(=O)NCCN(C)C)c2ccccc2n1` [Compound 8a, N-[2-(dimethylamino)ethyl]-2-(propan-2-yloxy)quinoline-4-carboxamide]: it took 38.5 ± 1.5 µM to reach half-maximal cytotoxicity (CC50). This CC50 lies about 3.9-fold higher than the previous one.

With `CC(C)Oc1cc(C(=O)NCCN)c2ccccc2n1` [Compound 8b, N-(2-aminoethyl)-2-(propan-2-yloxy)quinoline-4-carboxamide], the CC50 came to 149 ± 15.3 µM. Against the preceding molecule, the CC50 is about 3.9-fold higher.

The molecule `CC(C)Oc1cc(C(=O)NCCCN(C)C)c2ccccc2n1` [Compound 8c, N-[3-(dimethylamino)propyl]-2-(propan-2-yloxy)quinoline-4-carboxamide] came in with a CC50 of 122 ± 39.2 µM.

As to `CC(C)Oc1cc(C(=O)NCCN2CCOCC2)c2ccccc2n1` [Compound 8d, N-[2-(morpholin-4-yl)ethyl]-2-(propan-2-yloxy)quinoline-4-carboxamide], the CC50 was over 250 µM.

In turn, `CC(C)Oc1cc(C(=O)NCCN2CCCC2)c2ccccc2n1` [Compound 8e, 2-(propan-2-yloxy)-N-[2-(pyrrolidin-1-yl)ethyl]quinoline-4-carboxamide] displayed a CC50 of 36.9 ± 20.1 µM.

The molecule `CC(C)Oc1cc(C(=O)NCCN2CCN(C)CC2)c2ccccc2n1` [Compound 8f, N-[2-(4-methylpiperazin-1-yl)ethyl]-2-(propan-2-yloxy)quinoline-4-carboxamide] had a CC50 of 88.8 ± 21.5 µM.

Turning to `CC(C)Oc1cc(C(=O)NC2CCN(C)CC2)c2ccccc2n1` [Compound 8g, N-(1-methylpiperidin-4-yl)-2-(propan-2-yloxy)quinoline-4-carboxamide], half-maximal cytotoxicity (CC50) was put at 101 ± 8.8 µM.

The molecule `CCN(CC)CCCNC(=O)c1cc(-c2ccccc2)nc2ccccc12` [Compound 10b, N-[3-(diethylamino)propyl]-2-phenylquinoline-4-carboxamide] registered a CC50 of 45.4 ± 14 µM.

`O=C(NCCN1CCCC1)c1cc(-c2ccccc2)nc2ccccc12` [Compound 10g, 2-phenyl-N-[2-(pyrrolidin-1-yl)ethyl]quinoline-4-carboxamide] returned a CC50 of 46.7 ± 8.3 µM.

The molecule `CN(C)CCCNC(=O)c1cc(-c2ccccc2)nc2ccccc12` [Compound 10h, N-[3-(dimethylamino)propyl]-2-phenylquinoline-4-carboxamide] yielded a CC50 of 44.9 ± 17.7 µM.

As to `CN(C)CCCNC(=O)c1cc(-c2cccs2)nc2ccccc12` [Compound 12b, N-[3-(dimethylamino)propyl]-2-(thiophen-2-yl)quinoline-4-carboxamide], half-maximal cytotoxicity (CC50) was put at 40.5 ± 14 µM.

Consider `O=C(NCCCn1ccnc1)c1cc(-c2cccs2)nc2ccccc12` [Compound 12d, N-[3-(1H-imidazol-1-yl)propyl]-2-(thiophen-2-yl)quinoline-4-carboxamide], for which half-maximal cytotoxicity (CC50) was put at 55.7 ± 3.5 µM.

The same data set, now with this note: Table 6; RD cells.
For `CN(C)CCNC(=O)c1cc(-c2ccccc2)nc2ccc(Cl)cc12` [Compound 15a, 6-chloro-N-[2-(dimethylamino)ethyl]-2-phenylquinoline-4-carboxamide], it took 14.3 ± 0.8 µM to reach half-maximal cytotoxicity (CC50).

For the molecule `CCN(CC)CCNC(=O)c1cc(-c2ccccc2)nc2ccc(Cl)cc12` [Compound 15b, 6-chloro-N-[2-(diethylamino)ethyl]-2-phenylquinoline-4-carboxamide], it took 13.5 ± 8.1 µM to reach half-maximal cytotoxicity (CC50).

For the molecule `COc1ccc2nc(-c3ccccc3)cc(C(=O)NCCN(C)C)c2c1` [Compound 15c, N-[2-(dimethylamino)ethyl]-6-methoxy-2-phenylquinoline-4-carboxamide], the CC50 was found to be 31.8 ± 1.3 µM.

In turn, `CCN(CC)CCNC(=O)c1cc(-c2ccccc2)nc2ccc(OC)cc12` [Compound 15d, N-[2-(diethylamino)ethyl]-6-methoxy-2-phenylquinoline-4-carboxamide] had a CC50 of 27.5 ± 7.3 µM.

`CN(C)CCNC(=O)c1cc(-c2ccccc2)nc2ccc(F)cc12` [Compound 19a, N-[2-(dimethylamino)ethyl]-6-fluoro-2-phenylquinoline-4-carboxamide] returned a CC50 of 38.8 ± 19 µM.

For `CCN(CC)CCNC(=O)c1cc(-c2ccccc2)nc2ccc(F)cc12` [Compound 19b, N-[2-(diethylamino)ethyl]-6-fluoro-2-phenylquinoline-4-carboxamide], it took 24.9 ± 1.5 µM to reach half-maximal cytotoxicity (CC50).

As usually defined, the EC50 is the concentration needed to bring the measured effect to its halfway point. The term CC50 denotes the concentration giving 50% cytotoxicity. Low readings indicate greater toxicity to the cells, high ones lower toxicity to the cells.
